Experimental findings from patent US20240239767A1 (AstraZeneca AB, priority 2022, published 2024) are described below.

The target of assay [1] is GSK3b (Glycogen synthase kinase-3 beta) (Homo sapiens, UniProt P49841). Description: Assay 6 - GSK3b assay (ThermoFisher, FRET Z-Lyte). The assay is classed as biochemical. The note with it: geometric mean; ATP Conc: 10.000 μM; read-out: Assay 6 (GSK3B FRET-Z-Lyte CR) GMean IC50 (μM) ATP Conc: 10.000. The gist of the method: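 Z-Lyte FRET kinase assay: 0.22-0.92 ng GSK3β with 2 μM Ser/Thr 09 peptide in 50 mM HEPES pH 7.5, 10 mM MgCl2, 1 mM EGTA, 0.01% BRIJ-35, 60 min at room temperature, then 60 min development. Compounds in 1% DMSO, 10-point 3-fold dilutions from 10 μM; sigmoidal dose-response fit.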

Assay [2] addresses PCSK9 (Homo sapiens, UniProt Q8NBP7). Description: Assay 2 - Biophysical human PCSK9 assay (SPR, Biacore). In kind it is binding. The arrangement: biotinylated human PCSK9 (31-692)-Avi-His6. The note with it: geometric mean; SPR single-cycle kinetics, 30° C.; read-out: Assay 2 (PCSK9 BIAcore DBA CR) GMean Kd. As for the experimental part:
The SPR binding experiments were performed on a Biacore S200 optical biosensor unit at 30° C. A Series S Sensor Chip SA that is designed to bind biotinylated molecules for interaction analysis in Biacore systems was equilibrated at room temperature prior to use. The running buffer for protein tethering and subsequent ligand binding experiments was 10 mM HEPES pH 7.4, 150 mM NaCl, 0.05% (v/v) Tween 20 pH 7.4.
For the surface tethering of PCSK9, biotinylated human PCSK9 (31-692)-Avi-His6 at a concentration of 0.5 mg/mL was used. Prior to the surface tethering, the surface was exposed to a solution of 50 mM NaOH, 500 mM NaCl via 3 consecutive injections of this solution with a contact time of 60 s and a flowrate of 10 μL min- to remove non-conjugated streptavidin. The PCSK9 protein was diluted to a concentration of 20 μg/mL using running buffer and injected with a contact time of 180-300 s and a flowrate of 10 μL min^−1 over a single flow channel (typically flow channel 2 or flow channel 4) with the aim to achieve protein capture levels of >5000 response units (RU). Remaining biotin binding sites were blocked via 2 consecutive injections of a 10 μM D-biotin solution in running buffer with a contact time of 60 s and a flowrate of 10 μL min^−1 over all flow-channels.
The binding experiments were all performed at a flow rate of 30 μL min^−1 and by employing the method of single-cycle kinetics. This approach involves the sequential injection of a compound concentration series without regeneration steps. A contact time between 90-150 s was selected, which was followed by a 40 min dissociation phase to allow for a proper estimation of the dissociation rate constant. Test compounds were delivered in DMSO at a concentration of 10 mM and a digital dispenser HP D300 was used to set up the compound concentration series using 6 concentrations. The tested concentrations have been 30, 100, 300, 1000, 3000 and 10000 nM. Prior to injecting any compound, the surfaces were equilibrated by injecting running buffer over them in three separate pulses. The data collection rate was set to 10 Hz.
The raw sensorgrams of the compound injections were first subjected to reference subtraction (subtracting the signal from flow channel 1 and/or 3 from the signal from channels 2 and/or 4 respectively) and then blank subtraction (subtracting the signal from injecting DMSO controls from the reference subtracted data). The resulting double-referenced sensorgrams were then fitted using a 1:1 binding interaction model using the manufactures software package to extract kinetic- and affinity data.

Assay [3] deals with T1, potassium ion channel hERG (human Ether-á-go-go-Related Gene) (Homo sapiens, UniProt Q12809).
T1 construct: expressed in transfected cells; host or cells: Chinese hamster ovary K1 (CHO)
Put plainly: Assay 5 - hERG assay (SyncroPatch 384PE patch clamp, CHO cells). In kind it is cell-based. The conditions noted are these: geometric mean, CHO cells over-expressing hERG, read-out: Assay 5 (hERG Hu CHO IF EPh CR-Syncro) GMean IC50. The gist of the method:
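Automated whole-cell patch clamp at room temperature on CHO-K1 cells over-expressing hERG, using K-fluoride/escin internal solution (pH 7.2) and NMDG-containing external solution (pH 7.4). Compounds were tested in a 6-point cumulative format, 0.33% final DMSO. Wells accepted only with seal >30 MegaOhm, Z′>0.4 and current >0.2 nA.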
On the technique in general: The hERG channel carries a current that helps repolarise heart muscle cells.

Assay [4] addresses T2, PCSK9 (Homo sapiens, UniProt Q8NBP7, G670E/V474I). Put plainly: biochemical.
Target sequence in this assay (Q8NBP7 with tags, fused parts or gaps V474I/G670E): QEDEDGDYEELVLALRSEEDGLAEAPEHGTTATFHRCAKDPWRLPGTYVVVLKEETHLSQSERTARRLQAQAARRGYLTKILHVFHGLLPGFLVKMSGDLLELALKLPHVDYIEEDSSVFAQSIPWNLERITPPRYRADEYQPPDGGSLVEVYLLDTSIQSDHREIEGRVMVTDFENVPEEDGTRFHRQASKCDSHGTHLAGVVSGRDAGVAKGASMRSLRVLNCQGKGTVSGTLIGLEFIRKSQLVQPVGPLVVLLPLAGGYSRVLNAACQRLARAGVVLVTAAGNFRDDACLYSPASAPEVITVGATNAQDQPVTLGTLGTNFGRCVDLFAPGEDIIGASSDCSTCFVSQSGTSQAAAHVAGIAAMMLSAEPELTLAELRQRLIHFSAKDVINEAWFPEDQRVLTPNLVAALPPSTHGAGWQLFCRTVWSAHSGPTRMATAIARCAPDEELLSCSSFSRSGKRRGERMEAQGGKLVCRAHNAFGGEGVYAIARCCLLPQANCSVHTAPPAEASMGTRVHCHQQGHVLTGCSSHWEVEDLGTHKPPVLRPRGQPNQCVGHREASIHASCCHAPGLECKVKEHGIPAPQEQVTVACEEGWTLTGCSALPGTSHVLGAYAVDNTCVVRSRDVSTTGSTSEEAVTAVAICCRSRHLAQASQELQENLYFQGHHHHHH
Assay [5] deals with T2, PCSK9. Description: cell-based.
Target sequence in this assay (Q8NBP7 31-152): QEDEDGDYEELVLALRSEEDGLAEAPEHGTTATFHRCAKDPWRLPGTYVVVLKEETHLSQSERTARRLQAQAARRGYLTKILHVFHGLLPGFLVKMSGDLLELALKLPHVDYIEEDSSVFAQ
Target sequence in this assay (Q8NBP7 153-692 V474I/G670E): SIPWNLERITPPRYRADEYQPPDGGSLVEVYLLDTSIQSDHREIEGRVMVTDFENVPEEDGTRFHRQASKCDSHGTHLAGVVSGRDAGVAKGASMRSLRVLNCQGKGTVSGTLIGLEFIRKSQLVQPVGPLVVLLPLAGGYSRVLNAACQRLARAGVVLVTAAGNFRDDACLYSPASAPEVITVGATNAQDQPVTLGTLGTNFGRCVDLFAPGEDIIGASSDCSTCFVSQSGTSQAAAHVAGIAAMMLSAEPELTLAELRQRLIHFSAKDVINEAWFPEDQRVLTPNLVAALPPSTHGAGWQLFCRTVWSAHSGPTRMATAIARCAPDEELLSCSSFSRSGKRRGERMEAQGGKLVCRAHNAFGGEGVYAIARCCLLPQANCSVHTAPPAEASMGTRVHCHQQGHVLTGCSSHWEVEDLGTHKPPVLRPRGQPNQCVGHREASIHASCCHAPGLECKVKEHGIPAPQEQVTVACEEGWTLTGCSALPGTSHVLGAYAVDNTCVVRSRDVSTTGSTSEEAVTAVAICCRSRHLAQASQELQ
Description: This assay measures for PCSK9 antagonist activity based on a test compound's capacity to restore LDL-C uptake in HepG2 cells. The assay is based on exogenous PCSK9 and LDL-C complexed with a pH-sensitive dye. Outside the cells, at neutral pH, the pHrodo Red-LDL is dimly fluorescent but upon LDLR mediated endocytosis it fluoresces brightly. PCSK9 traffics the LDLR to intracellular degradation and reduces uptake of LDL-C. Inhibition of PCSK9 reduces LDLR degradation and the increased LDL-C uptake is quantified by fluorescence microscopy.
Cell medium: MEM supplemented with 10% FBS, 1× NEAA and Sodium Pyruvate
Assay medium: OptiMem supplemented with penicillin/streptomycin
Cells: HepG2 (ATCC #HB-8065)
Cryopreserved HepG2 cells were thawed in assay medium and centrifuged for 5 min at 250 g. Supernatant was discarded and the cell pellet resuspended in cell medium and counted with a Nucleocounter. Cells were again centrifuged 5 min at 250 g and the pellet was resuspended to 500000 cells/mL in assay medium. • 2. 20 μL of above cell mix was dispensed into black pclear TC treated 384 well plates with Multidrop Combi and left at room temperature for 20 minutes. • 3. Plates were incubated at 37° C., 5% CO2 for 24 h
Test compounds were prepared in concentration response in DMSO with a half-log dilution factor in DMSO in Echo 384 LDV plates starting at 10 mM. • 2. 30 nL of above test compounds were dispensed with Echo 655 to cells for a top concentration of 10 μM • 3. […] Plates were incubated at 37° C., 5% CO2 for 24 h
10 μL pHrodo Red-LDL in assay medium was dispensed to cells with Multidrop Combi for 6 μg/mL • 2. Plates were incubated at 37° C., 5% CO2 and imaged with the Incucyte S3 after 4 h and 24 h
Image data was processed using Incucyte 2021, a software to identify cells and red fluorescent intensity. Screener was used to further process data. Data was normalized as % effect of the signal between median values of the on-plate controls of DMSO and 100 nM Evolocumab according to the formula % effect=−100*(x−DMSO)/(Evolocumab−DMSO) where x equals the measured signal. Concentration response data of the normalized values were fitted using a four-parameter logistic fit.

Chain of GSK3b (Glycogen synthase kinase-3 beta) (P49841 whole entry): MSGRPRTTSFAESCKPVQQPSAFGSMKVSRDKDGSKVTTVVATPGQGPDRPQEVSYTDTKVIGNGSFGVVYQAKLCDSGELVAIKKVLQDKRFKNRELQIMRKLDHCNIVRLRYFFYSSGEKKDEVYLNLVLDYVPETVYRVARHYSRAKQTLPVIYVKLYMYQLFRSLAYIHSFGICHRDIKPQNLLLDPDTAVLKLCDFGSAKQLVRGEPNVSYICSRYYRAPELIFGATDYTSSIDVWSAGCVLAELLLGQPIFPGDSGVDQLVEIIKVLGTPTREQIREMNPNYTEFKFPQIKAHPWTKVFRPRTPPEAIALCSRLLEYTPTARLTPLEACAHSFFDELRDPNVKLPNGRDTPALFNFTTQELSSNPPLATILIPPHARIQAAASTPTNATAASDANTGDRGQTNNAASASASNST
T1 sequence (Q12809 whole entry): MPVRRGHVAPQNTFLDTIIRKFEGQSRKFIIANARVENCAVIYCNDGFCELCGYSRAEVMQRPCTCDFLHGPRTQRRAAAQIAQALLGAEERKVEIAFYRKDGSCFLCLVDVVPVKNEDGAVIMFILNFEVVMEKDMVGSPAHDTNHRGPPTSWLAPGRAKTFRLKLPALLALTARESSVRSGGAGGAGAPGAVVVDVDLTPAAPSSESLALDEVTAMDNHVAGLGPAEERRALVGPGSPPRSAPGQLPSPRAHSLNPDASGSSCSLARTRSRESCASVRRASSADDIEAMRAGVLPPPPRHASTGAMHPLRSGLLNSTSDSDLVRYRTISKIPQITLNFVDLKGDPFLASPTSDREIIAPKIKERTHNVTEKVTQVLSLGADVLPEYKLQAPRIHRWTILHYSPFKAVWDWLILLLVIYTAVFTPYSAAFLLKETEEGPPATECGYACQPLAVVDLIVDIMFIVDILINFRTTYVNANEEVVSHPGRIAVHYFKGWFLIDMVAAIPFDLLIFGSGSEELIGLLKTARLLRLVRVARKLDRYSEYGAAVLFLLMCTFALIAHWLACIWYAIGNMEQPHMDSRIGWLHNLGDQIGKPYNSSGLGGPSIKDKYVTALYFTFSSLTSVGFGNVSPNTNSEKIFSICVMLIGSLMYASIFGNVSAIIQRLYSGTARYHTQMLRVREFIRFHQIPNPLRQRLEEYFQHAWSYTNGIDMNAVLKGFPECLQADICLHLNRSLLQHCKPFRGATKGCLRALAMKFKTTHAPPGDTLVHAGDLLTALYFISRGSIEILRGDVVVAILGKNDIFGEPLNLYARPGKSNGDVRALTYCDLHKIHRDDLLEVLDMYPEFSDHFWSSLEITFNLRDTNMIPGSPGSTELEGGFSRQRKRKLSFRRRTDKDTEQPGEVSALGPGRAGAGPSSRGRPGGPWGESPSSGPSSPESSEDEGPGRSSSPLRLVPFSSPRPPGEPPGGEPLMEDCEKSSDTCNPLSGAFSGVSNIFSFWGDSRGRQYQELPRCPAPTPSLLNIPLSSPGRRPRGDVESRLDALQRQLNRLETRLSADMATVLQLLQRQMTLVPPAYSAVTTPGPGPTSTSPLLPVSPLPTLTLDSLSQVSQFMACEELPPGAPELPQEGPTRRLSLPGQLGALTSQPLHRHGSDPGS
Chain of PCSK9 (Homo sapiens, UniProt Q8NBP7) (Q8NBP7 31-692): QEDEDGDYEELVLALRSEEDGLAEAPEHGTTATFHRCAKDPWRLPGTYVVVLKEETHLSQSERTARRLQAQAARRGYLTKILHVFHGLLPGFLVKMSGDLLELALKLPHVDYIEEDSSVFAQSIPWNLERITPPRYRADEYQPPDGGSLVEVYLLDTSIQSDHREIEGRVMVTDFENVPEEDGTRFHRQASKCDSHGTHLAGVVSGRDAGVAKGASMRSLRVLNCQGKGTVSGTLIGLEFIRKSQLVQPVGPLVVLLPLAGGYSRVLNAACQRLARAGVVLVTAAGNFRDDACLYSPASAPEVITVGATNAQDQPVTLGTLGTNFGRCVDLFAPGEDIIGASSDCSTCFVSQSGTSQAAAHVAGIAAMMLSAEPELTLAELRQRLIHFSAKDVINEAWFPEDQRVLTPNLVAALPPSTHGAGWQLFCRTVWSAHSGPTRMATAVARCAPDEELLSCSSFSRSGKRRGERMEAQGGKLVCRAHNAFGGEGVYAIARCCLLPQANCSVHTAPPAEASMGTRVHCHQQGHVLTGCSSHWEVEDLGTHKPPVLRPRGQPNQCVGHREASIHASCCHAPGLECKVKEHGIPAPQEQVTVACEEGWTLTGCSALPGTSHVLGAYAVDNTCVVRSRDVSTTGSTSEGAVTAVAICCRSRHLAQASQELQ

What is called IC50 is the concentration that gives 50% inhibition. As a reminder, the Kd is the constant that tells how readily two partners part at equilibrium. As for `O=c1ccccn1-c1ccc(N[C@H]2CC[C@H](Nc3nc4ccc(CO)cc4o3)C2)nc1` [Example 4, 6′-(((1S,3S)-3-((6-(Hydroxymethyl)benzo[d]oxazol-2-yl)amino)cyclopentyl)amino)-2H-[1,3′-bipyridin]-2-one], the IC50 in assay [1] was above 10 µM; in assay [3], above 40000 nM; against PCSK9 [4], 32.2 nM. In addition, the Kd on PCSK9 [2] worked out at 49 nM.
As to `O=c1ccccn1-c1ccc(N[C@H]2CC[C@H](Nc3nc4ncccc4s3)C2)nc1` [Example 20, 6′-(((1S,3S)-3-(Thiazolo[4,5-b]pyridin-2-ylamino)cyclopentyl)amino)-2H-[1,3′-bipyridin]-2-one], the IC50 in assay [1] was above 10 µM; in assay [3], above 40100 nM; against PCSK9 [4] it was 603 nM. Besides, the Kd on PCSK9 [2] came out at 672 nM.
As to `O=c1ccccn1-c1ccc(N[C@H]2CC[C@H](Nc3nc4ccccc4[nH]3)C2)nc1` [Example 10, 6′-(((1S,3S)-3-((1H-Benzo[d]imidazol-2-yl)amino)cyclopentyl)amino)-2H-[1,3′-bipyridin]-2-one], the IC50 in assay [1] is above 10 µM; in assay [3] it was 4000 nM; at PCSK9 [4], 2470 nM. The Kd on PCSK9 [2] turned out to be 1550 nM.
Consider `O=c1ccccn1-c1ccc(N[C@H]2CC[C@H](Nc3nc4cccnc4o3)C2)nc1` [Example 11, 6′-(((1S,3S)-3-(Oxazolo[5,4-b]pyridin-2-ylamino)cyclopentyl)amino)-2H-[1,3′-bipyridin]-2-one], for which the IC50 in assay [1] is above 10 µM; in assay [3], above 40000 nM; against PCSK9 [4], 28 nM. At PCSK9 [2], the equilibrium dissociation constant (Kd) came to 24 nM.
As to `Cc1cnc2[nH]c(N[C@H]3CC[C@H](Nc4ccc(-n5ccccc5=O)cn4)C3)nc2c1` [Example 49, 6′-(((1S,3S)-3-((6-Methyl-3H-imidazo[4,5-b]pyridin-2-yl)amino)cyclopentyl)amino)-2H-[1,3′-bipyridin]-2-one], the half-maximal inhibitory concentration (IC50) was 5.59 µM in assay [1], above 40000 nM in assay [3], 43 nM against PCSK9 [5] and 2.8 nM at PCSK9 [4].
`CCc1cnc2[nH]c(N[C@H]3CC[C@H](Nc4ccc(-n5ccccc5=O)cn4)C3)nc2c1` [Example 56, 6′-(((1S,3S)-3-((6-Ethyl-3H-imidazo[4,5-b]pyridin-2-yl)amino)cyclopentyl)amino)-2H-[1,3′-bipyridin]-2-one]: the IC50 in assay [1] was 3.13 µM; in assay [3], above 40000 nM; at PCSK9 [5], 395 nM; at PCSK9 [4], 3.1 nM.
With `O=c1ccccn1-c1ccc(N[C@H]2CC[C@H](Nc3nc4nccnc4[nH]3)C2)nc1` [Example 80, 6′-(((1S,3S)-3-((1H-Imidazo[4,5-b]pyrazin-2-yl)amino)cyclopentyl)amino)-2H-[1,3′-bipyridin]-2-one], the half-maximal inhibitory concentration (IC50) in assay [1] was 0.305 µM; in assay [3] it was above 40000 nM; on PCSK9 [5] it was 158 nM; at PCSK9 [4], 5.1 nM.
Consider `COc1ccc(=O)n(-c2ccc(N[C@H]3CC[C@H](Nc4nc5cccnc5[nH]4)C3)nc2)c1` [Example 72, 6′-(((1S,3S)-3-((3H-Imidazo[4,5-b]pyridin-2-yl)amino)cyclopentyl)amino)-5-methoxy-2H-[1,3′-bipyridin]-2-one], for which the IC50 in assay [1] was 0.01 µM; in assay [3], above 40000 nM; against PCSK9 [5], 163 nM; against PCSK9 [4] it was 5 nM.
On to `O=c1ccccn1-c1ccc(N[C@H]2CC[C@H](Nc3nc4cc(F)cnc4[nH]3)C2)nc1` [Example 48, 6′-(((1S,3S)-3-((6-Fluoro-3H-imidazo[4,5-b]pyridin-2-yl)amino)cyclopentyl)amino)-2H-[1,3′-bipyridin]-2-one], for which the concentration for half-maximal inhibition (IC50) in assay [1] is 0.805 µM; in assay [3], above 40000 nM; on PCSK9 [5], 100 nM; against PCSK9 [4] it was 2.1 nM.
As for `O=c1c(Cl)cccn1-c1ccc(N[C@H]2CC[C@H](Nc3nc4cccnc4[nH]3)C2)nc1` [Example 42, 6′-(((1S,3S)-3-((3H-Imidazo[4,5-b]pyridin-2-yl)amino)cyclopentyl)amino)-3-chloro-2H-[1,3′-bipyridin]-2-one], the IC50 was 6.14 µM in assay [1], above 40000 nM in assay [3], 77 nM on PCSK9 [5] and 0.9 nM against PCSK9 [4].
On to `O=c1c(OC(F)F)cccn1-c1ccc(N[C@H]2CC[C@H](Nc3nc4cccnc4s3)C2)nc1` [Example 81, 3-(Difluoromethoxy)-6′-(((1S,3S)-3-(thiazolo[5,4-b]pyridin-2-ylamino)cyclopentyl)amino)-2H-[1,3′-bipyridin]-2-one], for which the IC50 in assay [1] is above 10 µM; in assay [3], 6120 nM; at PCSK9 [5], 108 nM; against PCSK9 [4], 1.5 nM.
For `N#Cc1ccc(=O)n(-c2ccc(N[C@H]3CC[C@H](Nc4nc5cccnc5[nH]4)C3)nc2)c1` [Example 43, 6′-(((1S,3S)-3-((3H-Imidazo[4,5-b]pyridin-2-yl)amino)cyclopentyl)amino)-2-oxo-2H-[1,3′-bipyridine]-5-carbonitrile], the IC50 in assay [1] was above 10 µM; in assay [3], above 40000 nM; against PCSK9 [5], 200 nM; at PCSK9 [4], 4.2 nM.
With `O=c1ccc(OC(F)F)cn1-c1ccc(N[C@H]2CC[C@H](Nc3nc4cccnc4o3)C2)nc1` [Example 78, 5-(Difluoromethoxy)-6′-(((1S,3S)-3-(oxazolo[5,4-b]pyridin-2-ylamino)cyclopentyl)amino)-2H-[1,3′-bipyridin]-2-one], the IC50 was above 10 µM in assay [1], 39600 nM in assay [3], 367 nM on PCSK9 [5] and 18.9 nM against PCSK9 [4].
On the same counts, the results for `Cc1cccn(-c2ccc(N[C@H]3CC[C@H](Nc4nc5cccnc5s4)C3)nc2)c1=O` [Example 22, 3-Methyl-6′-(((1S,3S)-3-(thiazolo[5,4-b]pyridin-2-ylamino)cyclopentyl)amino)-2H-[1,3′-bipyridin]-2-one] are above 10 µM, 25700 nM, 54 nM and 1.2 nM.
On the same counts, the results for `Cn1cccc(-c2cnc(N[C@H]3CC[C@H](Nc4nc5cccnc5[nH]4)C3)nc2)c1=O` [Example 39, 3-(2-(((1S,3S)-3-((3H-Imidazo[4,5-b]pyridin-2-yl)amino)cyclopentyl)amino)pyrimidin-5-yl)-1-methylpyridin-2(1H)-one] are above 10 µM, above 40000 nM, 93 nM and 6.1 nM.
Regarding `O=c1ccccn1-c1ccc(N[C@H]2CC[C@H](Nc3nc4cc(Br)cnc4[nH]3)C2)nc1` [Example 54, 6′-(((1S,3S)-3-((6-Bromo-3H-imidazo[4,5-b]pyridin-2-yl)amino)cyclopentyl)amino)-2H-[1,3′-bipyridin]-2-one], the IC50 in assay [1] is 0.306 µM; in assay [3], above 40100 nM; at PCSK9 [5], 41 nM; against PCSK9 [4], 0.7 nM.
Consider `COc1cccc(F)c1-c1ccc(N[C@H]2CC[C@H](Nc3nc4cccnc4[nH]3)C2)nc1` [Example 67, (1S,3S)—N^1-(5-(2-Fluoro-6-methoxyphenyl)pyridin-2-yl)-N^3-(3H-imidazo[4,5-b]pyridin-2-yl)cyclopentane-1,3-diamine], for which the results for the IC50 (in assay [1]; in assay [3]; against PCSK9 [4]) were above 10 µM, 3980 nM and 18.1 nM, respectively. Besides, the Kd on PCSK9 [2] came to 57 nM.
